Experimental data published in PubChem BioAssay (NCI).
Several values for one entry are separate records, joined by “and”; a condition that tells them apart may be missing. Equal entries are not always repeated.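 In this assay, cells in 96-well plates receive the compound at five concentrations for 48 hours. Endpoints are linearly interpolated between the surrounding concentrations. At the GI50, growth is halved. TGI marks complete inhibition of growth.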

How the values were obtained:
Assay in all cases: inhibition of tumour cell growth, NCI panel, 48 h
HCT-15 colon = test system: HCT-15 colon
TK-10 renal = test system: TK-10 renal
COLO 205 colon = test system: COLO 205 colon
M14 melanoma = test system: M14 melanoma
SR leukemia = test system: SR leukemia
NCI/ADR-RES ovarian = test system: NCI/ADR-RES ovarian
HOP-62 NSCLC = test system: HOP-62 NSCLC
MDA-MB-435 = test system: MDA-MB-435
U251 CNS = test system: U251 CNS
HCC-2998 colon = test system: HCC-2998 colon

Row | Compound | GI50 (HCT-15 colon) | TGI (HCT-15 colon) | GI50 (TK-10 renal) | TGI (TK-10 renal) | GI50 (COLO 205 colon) | TGI (COLO 205 colon) | GI50 (M14 melanoma) | TGI (M14 melanoma) | GI50 (SR leukemia) | TGI (SR leukemia) | GI50 (NCI/ADR-RES ovarian) | TGI (NCI/ADR-RES ovarian) | GI50 (HOP-62 NSCLC) | TGI (HOP-62 NSCLC) | GI50 (MDA-MB-435) | TGI (MDA-MB-435) | GI50 (U251 CNS) | TGI (U251 CNS) | GI50 (HCC-2998 colon) | TGI (HCC-2998 colon)
1 | CCOC(=O)c1c(C)nc2c(c1N)CC(=O)N2CCc1ccccc1 | 0.485 µM | 13.6 µM | 0.596 µM | 15 µM | 0.518 µM | 13.6 µM | 0.845 µM | 3.47 µM | 0.444 µM | 28.1 µM | 2.05 µM | 27.2 µM | 0.472 µM | 14.7 µM | 0.354 µM | 15.4 µM | 0.997 µM | 18.4 µM | 3.49 µM | 12.8 µM
2 | COc1ccc2c(Cl)cc(NC(=O)Nc3c(C)cccc3C)nc2c1 | 27.3 µM | > 100 µM | 11.2 µM | 58.2 µM | 46 µM | > 100 µM | 31.8 µM | > 100 µM | 27.5 µM | > 100 µM | > 100 µM | > 100 µM | 3.91 µM | 15.3 µM | 13.4 µM | 40.5 µM | 13.7 µM | 39.2 µM | > 100 µM | > 100 µM
3 | CCCCNC(=O)c1cc(NCc2cc(O)ccc2O)ccc1O | 10.7 µM | 32.4 µM | 22.6 µM | 37.6 µM | 17 µM | 36.9 µM | 19.2 µM | 43.7 µM | 5.35 µM | > 100 µM | 25 µM | > 100 µM | 71.8 µM | > 100 µM | 17.7 µM | 39.5 µM | 22.6 µM | 59.1 µM | 17.6 µM | 35.5 µM
4 | N#Cc1c(N)nc(N)nc1N[C@H](c1nc2c(F)ccc(Cl)c2c(=O)n1-c1cccnc1)C1CC1 | 14.9 µM | 56.7 µM | 1.92 µM | 15.6 µM | 8.74 µM | 25.8 µM | 13.6 µM | 41.8 µM | 13.4 µM | 52.5 µM | 28.5 µM | > 100 µM | 3.62 µM | > 100 µM | 13 µM | 34.4 µM | 14.7 µM | 69.2 µM | 12.7 µM | 28.4 µM
5 | CN1CCN(c2nc(NCCCNc3ccnc4cc(Cl)ccc34)c3ccccc3n2)CC1 | 5.33 µM | 18.8 µM | 10.8 µM | 26.2 µM | 1.86 µM | 4.51 µM | 1.89 µM | 3.77 µM | 1.74 µM | 6.05 µM | 22 µM | 59.1 µM | 2.81 µM | 11.6 µM | 2.09 µM | 4.33 µM | 3.39 µM | 10.3 µM | 3 µM | 12.5 µM
6 | CC(C)n1nc(-c2ccc3oc(N)nc3c2)c2c(N)ncnc21 | 0.0126 µM and 0.0164 µM | 11.3 µM and > 35.2 µM | < 0.0113 µM and 0.0112 µM | 0.24 µM and 0.0897 µM | < 0.01 µM and 0.0144 µM | 2.21 µM and 1.88 µM | < 0.01 µM | 0.522 µM and 0.678 µM | 0.0284 µM and < 0.0112 µM | 3.84 µM | 0.0251 µM and 0.0245 µM | 0.58 µM and 0.83 µM | 0.0198 µM and 0.0212 µM | 0.793 µM and 0.435 µM | < 0.0125 µM and 0.0138 µM | 0.403 µM and 0.11 µM | 0.0229 µM and 0.0255 µM | 10.2 µM and 2.44 µM | 0.024 µM and 0.0259 µM | 11.5 µM and 11.9 µM
7 | CCOC(=O)c1oc2ccc([N+](=O)[O-])c3c2c1CCC3 |  | > 100 µM |  | 85.9 µM |  | > 100 µM |  | > 100 µM |  | > 100 µM |  | > 100 µM |  | 58.9 µM |  | > 55.5 µM |  | 59.2 µM |  | > 100 µM
8 | CC(C)CC(Nc1c(O)ccc2ccccc12)C(=O)O (stereo not given) |  | > 100 µM |  | > 100 µM |  | > 100 µM |  | > 100 µM |  | > 100 µM |  | > 100 µM |  | > 100 µM |  | 45.6 µM |  | > 100 µM |  | > 100 µM
9 | CC(/C=C/c1ccccc1)=N\NC(N)=S |  | > 100 µM |  | > 100 µM |  | 44.2 µM |  | 88.4 µM |  | 65.3 µM |  | 84 µM |  | > 100 µM |  | 84.4 µM |  | > 100 µM |  | 79.1 µM
10 | C[C@]1(Cn2ccnn2)C(C(=O)O)N2C(=O)CC2S1(=O)=O (stereo not given in full) | > 100 µM | > 100 µM | > 100 µM | > 100 µM | > 100 µM | > 100 µM | > 100 µM | > 100 µM | > 100 µM | > 100 µM | > 100 µM | > 100 µM | > 100 µM | > 100 µM | > 100 µM | > 100 µM | > 100 µM | > 100 µM | > 100 µM | > 100 µM
11 | C/C(=N\N=C(\[Se])N(C)C)c1ccccn1 |  | 15.9 µM |  | 18.1 µM |  | 2.05 µM |  | 3.24 µM |  | 23.7 µM |  | 1.67 µM |  | 1.33 µM |  | 16.6 µM |  | 8.65 µM |  | 13.9 µM
12 | COc1cc(N2CCN(C(C)C)CC2)ccc1Nc1nc(Nc2cccc(F)c2C(=O)O)c2cc[nH]c2n1 | > 25 µM | > 25 µM | > 25 µM | > 25 µM | > 25 µM | > 25 µM | > 25 µM | > 25 µM | > 25 µM | > 25 µM | > 25 µM | > 25 µM | > 25 µM | > 25 µM | > 25 µM | > 25 µM | > 25 µM | > 25 µM | > 25 µM | > 25 µM
13 | CN1CCN(Cc2ccc(NC(=O)c3cncc(C#Cc4cncc5nccnc45)c3)cc2C(F)(F)F)CC1 | 2.51 µM | 12.9 µM | 5.34 µM | 12.8 µM | 0.904 µM | 7.11 µM | 0.83 µM | 4.33 µM | 2.98 µM | 28.5 µM | 6.68 µM | 25.1 µM | 2.68 µM | 9.8 µM | 1.34 µM | 7.3 µM | 5.67 µM | 13 µM | 1.73 µM | 8.48 µM
14 | CN(C)CC(C(=O)Cc1ccccc1)c1ccccc1 (stereo not given) | 1.76 µM | 3.95 µM | 1.56 µM | 3.1 µM | 2.3 µM | 5.04 µM | 2.34 µM | 4.97 µM | 1.24 µM | 7.55 µM | 4.4 µM | 23.9 µM | 6.87 µM | 21 µM | 3.09 µM | 12.2 µM | 2.23 µM | 5.02 µM | 15.9 µM | 30.3 µM
15 | COc1cc2ncnc(Nc3ccc4c(cnn4Cc4ccccc4)c3)c2cc1OC | > 17.4 µM | > 25 µM | 0.131 µM | > 25 µM | > 25 µM | > 25 µM | > 25 µM | > 25 µM | 24.9 µM | > 25 µM | > 19.5 µM | > 25 µM | > 25 µM | > 25 µM | > 25 µM | > 25 µM | > 19.2 µM | > 25 µM | > 25 µM | > 25 µM
16 | COc1ccc(/C=C2\CN(Cc3cn(CCNc4ccnc5cc(Cl)ccc45)nn3)C/C(=C\c3ccc(OC)c(OC)c3)C2=O)cc1OC | 6.87 µM | 38.7 µM | 4.96 µM | 22 µM | 1.99 µM | 3.9 µM | 3.35 µM | 12.5 µM | 2.04 µM | > 100 µM | > 100 µM | > 100 µM | 3.9 µM | 26.2 µM | 3.01 µM | 19.1 µM | 3.2 µM | 27.7 µM | 1.96 µM | 3.62 µM
17 | N=C(N)c1ccc(NCCOCCNc2ccc(C(=N)N)cc2)cc1 | 30.2 µM | > 100 µM | > 100 µM | > 100 µM | 14.9 µM | 39.5 µM | 55.4 µM | > 100 µM | 49 µM | > 100 µM | 78.5 µM | > 100 µM | 33.2 µM | > 100 µM | 81.3 µM | > 100 µM | 35.9 µM | > 100 µM | 41.9 µM | > 100 µM
